The target of the test is sodium channel isoforms (Homo sapiens, UniProt P35498). In kind it is cell-based. The conditions noted are these: area under the sodium current trace, step from −120 mV to 0 mV, HEK cells. As to the method: The sodium channel isoforms of interest are stably expressed in Human Embryonic Kidney Cells and the currents that flow through those channels in response to a depolarizing voltage clamp step from −120 mV to 0 mV are measured in the presence of increasing concentrations of the chemical agents. The area under the sodium current trace which correlates to the magnitude of sodium flux through the cell membrane is used to quantify the effects on gating of the channels. Other parameters that are measured in the assay include the peak current, time constant of open state inactivation and the voltage dependence of steady state inactivation properties. The concentration responses are used to determine potency of each chemical agents effects on modulating the sodium channel isoform gating. Such techniques are known to those skilled in the art, and may be developed, using current technologies, into low or medium throughput assays for evaluating compounds for their ability to modulate sodium channel behaviour.

As usually defined, the pEC50 is the EC50 on a negative log10 scale, so that one unit is a factor of ten. A high value points to a low EC50.

Each structure is given as a SMILES string. pEC50: −log10 of the molar value. Counter-ions that a name gives are not always drawn.

In the case of `CO[C@H]1CC[C@@H](c2nccc(-c3ccccc3F)c2NC(=O)c2cnc(C(C)C)nc2)CC1` [Example 38], the “Empirical Emax” value is “+ (+ indicates a value less than 2.0 μM)”.
Still for that read-out and setting: the entry for `CC(C)Oc1ncc(C(=O)Nc2c(-c3cc(F)ccc3F)ccnc2C2CCC(F)(F)CC2)cn1` [Example 7, N-[2-(4,4-difluorocyclohexyl)-4-(2,5-difluorophenyl)-3-pyridyl]-2-isopropoxy-pyrimidine-5-carboxamide] is “++++ (++++ indicates a value greater than 7.5)”; for `CC(C)c1ncc(C(=O)Nc2c(-c3cc(F)ccc3F)ccnc2C2CCC(F)(F)CC2)cn1` [Example 6, N-[2-(4,4-difluorocyclohexyl)-4-(2,5-difluorophenyl)-3-pyridyl]-2-isopropyl-pyrimidine-5-carboxamide] it is “+++ (+++ indicates a value from 5.0 up to 7.5 μM)”; for `CC(C)c1ncc(C(=O)Nc2c(-c3ccccc3F)ccnc2C2CC(F)(F)CCN2)cn1` (racemic) [Example 41, (±)—N-[2-(4,4-difluoro-2-piperidyl)-4-(2-fluorophenyl)-3-pyridyl]-2-isopropyl-pyrimidine-5-carboxamide hydrochloric acid salt] it is “++ (++ indicates a value from 2.0 up to 5.0 μM)”.
The same measure, in the same setting: next, `CC(C)c1ncc(C(=O)Nc2c(-c3ccccc3F)ccnc2C2CC(C(F)(F)F)C2)cn1` (stereo not drawn) [Example 35, N-(4-(2-fluorophenyl)-2-(3-(trifluoromethyl)cyclobutyl)pyridin-3-yl)-2-isopropylpyrimidine-5-carboxamide]: “+++ (+++ indicates a value from 5.0 up to 7.5 μM)”.
Same read-out and setting: next, `COc1ccc(C(=O)Nc2c(-c3cc(F)ccc3F)ccnc2C2CCC(F)(F)CC2)cn1` [Example 8, N-[2-(4,4-difluorocyclohexyl)-4-(2,5-difluorophenyl)-3-pyridyl]-6-methoxy-pyridine-3-carboxamide]: “+++ (+++ indicates a value from 5.0 up to 7.5 μM)”; `O=C(Nc1ccc(Cl)nc1)c1c(-c2ccccc2F)ccnc1C1CCCC1` [Example 49, N-(6-chloropyridin-3-yl)-2-cyclopentyl-4-(2-fluorophenyl)nicotinamide]: “+ (+ indicates a value less than 2.0 μM)”.
For the molecule `CC(C)c1ncc(C(=O)Nc2c(-c3ccccc3F)ccnc2C2CCC(F)(F)CC2)cn1` [Example 15, N-[2-(4,4-difluorocyclohexyl)-4-(2-fluorophenyl)-3-pyridyl]-2-isopropyl-pyrimidine-5-carboxamide], the “Empirical Emax” value is reported as “++++ (++++ indicates a value greater than 7.5)”.
On the same count and under the same terms, the entry for `CC(C)c1ncc(C(=O)Nc2c(-c3ccccc3)ccnc2C2CCOCC2)cn1` [Example 10, 2-isopropyl-N-(4-phenyl-2-(tetrahydro-2H-pyran-4-yl)pyridin-3-yl)pyrimidine-5-carboxamide] is “++ (++ indicates a value from 2.0 up to 5.0 μM)”; for `CC(C)c1ncc(C(=O)Nc2c(-c3ccccc3F)ccnc2[C@H]2CC[C@@H](C(F)(F)F)CC2)cn1` [Example 29, N-[4-(2-fluorophenyl)-2-[4-(trifluoromethyl)cyclohexyl]-3-pyridyl]-2-isopropyl-pyrimidine-5-carboxamide] it is “+ (+ indicates a value less than 2.0 μM)”.
`O=C(Nc1c(-c2cc(F)ccc2F)ccnc1C1CCC(F)(F)CC1)c1cnc(N2C3CCC2COC3)nc1` [Example 159, 2-(3-oxa-8-azabicyclo[3.2.1]octan-8-yl)-N-(2-(4,4-difluorocyclohexyl)-4-(2,5-difluorophenyl)pyridin-3-yl)pyrimidine-5-carboxamide]: the pEC50 was above 6.00.
In the case of `O=C(Nc1c(-c2cc(F)ccc2F)ccnc1C1CCC(F)(F)CC1)c1cnc(N2C3CCC2CC3)nc1` [Example 177, 2-(7-azabicyclo[2.2.1]heptan-7-yl)-N-(2-(4,4-difluorocyclohexyl)-4-(2,5-difluorophenyl)pyridin-3-yl)pyrimidine-5-carboxamide], the negative logarithm of the EC50 (pEC50) was above 6.00.
As for `CC(C)c1ncc(C(=O)Nc2c(-c3ccccc3F)ccnc2C2CCCC(F)(F)CC2)cn1` (racemic) [Example 37, (±)-N-(2-(4,4-difluorocycloheptyl)-4-(2-fluorophenyl)pyridin-3-yl)-2-isopropylpyrimidine-5-carboxamide], the “Empirical Emax” value is listed as “+++ (+++ indicates a value from 5.0 up to 7.5 μM)”.
On the same count and under the same terms, next, `CO[C@H]1CC[C@H](c2nccc(-c3ccccc3F)c2NC(=O)c2cnc(C(C)C)nc2)CC1` [Example 39]: “+ (+ indicates a value less than 2.0 μM)”.
Same read-out and setting: the entry for `COC1CCN(C(=O)Nc2c(-c3ccccc3F)ccnc2C2CCC(F)(F)CC2)CC1` [Example 5, N-[2-(4,4-difluorocyclohexyl)-4-(2-fluorophenyl)-3-pyridyl]-4-methoxy-piperidine-1-carboxamide] is “+++ (+++ indicates a value from 5.0 up to 7.5 μM)”; for `CC(C)c1ncc(C(=O)Nc2c(-c3ccccc3F)ccnc2C2CCCN2C)cn1` (racemic) [Example 42, (±)—N-(4-(2-fluorophenyl)-2-(1-methylpyrrolidin-2-yl)pyridin-3-yl)-2-isopropylpyrimidine-5-carboxamide] it is “+ (+ indicates a value less than 2.0 μM)”; for `CC(C)c1ncc(C(=O)Nc2c(-c3ccccc3)ccnc2C2CCCN2)cn1` (stereo not drawn) [Example 40, 2-isopropyl-N-(4-phenyl-2-(pyrrolidin-2-yl)pyridin-3-yl)pyrimidine-5-carboxamide] it is “+ (+ indicates a value less than 2.0 μM)”.
In the case of `CC(C)c1ncc(C(=O)Nc2c(-c3ccccc3F)ccnc2C2CC(F)(F)CCN2C(=O)OC(C)(C)C)cn1` (stereo not drawn) [Example 20, tert-butyl 4,4-difluoro-2-[4-(2-fluorophenyl)-3-[(2-isopropylpyrimidine-5-carbonyl)amino]-2-pyridyl]piperidine-1-carboxylate], the “Empirical Emax” value is “+ (+ indicates a value less than 2.0 μM)”.
Still for that read-out and setting: next, `CC(C)c1ncc(C(=O)Nc2c(-c3ccccc3F)ccnc2[C@H]2CC[C@](O)(C(F)(F)F)CC2)cn1` [Example 21, N-[4-(2-fluorophenyl)-2-[4-hydroxy-4-(trifluoromethyl)cyclohexyl]-3-pyridyl]-2-isopropyl-pyrimidine-5-carboxamide]: “+ (+ indicates a value less than 2.0 μM)”; `CC(C)c1ncc(C(=O)Nc2c(-c3ccccc3)ccnc2C2CCCN2C(=O)OC(C)(C)C)cn1` (racemic) [Example 13, (±)-tert-butyl 2-(3-(2-isopropylpyrimidine-5-carboxamido)-4-phenylpyridin-2-yl)pyrrolidine-1-carboxylate]: “+ (+ indicates a value less than 2.0 μM)”.
Regarding `CC(C)c1ncc(C(=O)Nc2c(-c3ccccc3F)ccnc2C2CC3(C2)CC3(F)F)cn1` (stereo not drawn) [Example 22, N-[2-(2,2-difluorospiro[2.3]hexan-5-yl)-4-(2-fluorophenyl)-3-pyridyl]-2-isopropyl-pyrimidine-5-carboxamide], the “Empirical Emax” value is given as “+++ (+++ indicates a value from 5.0 up to 7.5 μM)”.
Same read-out and setting: next, `O=C(Nc1ccc(Cl)nc1)c1c(-c2ccccc2F)ccnc1C1=CCOCC1` [Example 51]: “+ (+ indicates a value less than 2.0 μM)”; `C1=C(c2nccc(-c3ccccc3)c2-c2nc3c([nH]2)COCC3)CCOC1` [Example 44, 2-(2-(3,6-dihydro-2H-pyran-4-yl)-4-phenylpyridin-3-yl)-3,4,6,7-tetrahydropyrano[3,4-d]imidazole]: “+ (+ indicates a value less than 2.0 μM)”.
Still for that read-out and setting: next, `CC(C)c1ncc(C(=O)Nc2c(-c3ccccc3F)ccnc2C2CCCC(F)(F)C2)cn1` (stereo not drawn) [Example 26, N-[2-(3,3-difluorocyclohexyl)-4-(2-fluorophenyl)-3-pyridyl]-2-isopropyl-pyrimidine-5-carboxamide]: “+++ (+++ indicates a value from 5.0 up to 7.5 μM)”.
Still for that read-out and setting: the entry for `CC(C)c1ncc(C(=O)Nc2c(-c3ccccc3F)ccnc2C2CCC3(C2)CC3(F)F)cn1` (stereo not drawn) [Example 27, N-[2-(2,2-difluorospiro[2.4]heptan-6-yl)-4-(2-fluorophenyl)-3-pyridyl]-2-isopropyl-pyrimidine-5-carboxamide] is “+++ (+++ indicates a value from 5.0 up to 7.5 μM)”; for `CC(C)c1ncc(C(=O)Nc2c(-c3ccccc3F)ccnc2[C@H]2CC[C@H](C(F)(F)F)CC2)cn1` [Example 30, N-[4-(2-fluorophenyl)-2-[4-(trifluoromethyl)cyclohexyl]-3-pyridyl]-2-isopropyl-pyrimidine-5-carboxamide] it is “++ (++ indicates a value from 2.0 up to 5.0 μM)”; for `CC(C)c1ncc(C(=O)Nc2c(-c3ccccc3F)ccnc2[C@H]2CC[C@@H](F)CC2)cn1` [Example 33] it is “+++ (+++ indicates a value from 5.0 up to 7.5 μM)”.
`CC(C)c1ncc(C(=O)Nc2c(C3=CCCCO3)ccnc2C2CCC(F)(F)CC2)cn1` [Example 54, N-(2-(4,4-difluorocyclohexyl)-4-(3,4-dihydro-2H-pyran-6-yl)pyridin-3-yl)-2-isopropylpyrimidine-5-carboxamide]: the “Empirical Emax” value was “++++ (++++ indicates a value greater than 7.5)”.
Same read-out and setting: the entry for `CN(C)c1ncc(C(=O)Nc2c(-c3ccccc3F)ccnc2C2CCC(F)(F)CC2)cn1` [Example 2, N-[2-(4,4-difluorocyclohexyl)-4-(2-fluorophenyl)-3-pyridyl]-2-(dimethylamino)pyrimidine-5-carboxamide] is “++++ (++++ indicates a value greater than 7.5)”.
On the same count and under the same terms, next, `O=C(Nc1c(-c2ccccc2F)ccnc1C1CCC(F)(F)CC1)c1cnn(C2CCC2)c1` [Example 1, 1-cyclobutyl-N-[2-(4,4-difluorocyclohexyl)-4-(2-fluorophenyl)-3-pyridyl]pyrazole-4-carboxamide]: “++++ (++++ indicates a value greater than 7.5)”.

For the origin of these results see patent US20250129044A1 (priority 2021, published 2025).
